Source: paper PMC6562610, “Inhibition of Hedgehog Signaling in Fibroblasts, Pancreatic, and Lung Tumor Cells by Oxy186, an Oxysterol Analogue with Drug-Like Properties” (Cells, 2019)

Experiments:
[1] = system: Hh target gene Ptch1 expression in NIH3T3-E1 cells; test: Inhibition of CAPAN-1 conditioned medium-induced Ptch1 mRNA expression, Q-RT-PCR; assay type: cell-based, mouse; conditions: CAPAN-1 CM, 72 h
Source text: NIH3T3-E1 fibroblasts were obtained from ATCC (Manassas, VA) and cultured, as previously described. CAPAN-1 and PANC-1 human pancreatic cancer cells were obtained from ATCC and cultured in Dulbecco’s Modified Eagle Medium (DMEM) containing 10% heat-inactivated fetal bovine serum (FBS) (Hyclone Laboratories, Logan, UT, USA) and antibiotics, as previously described. The human lung cancer cell lines A549 and H2030 were obtained from ATCC and cultured in RPMI-1640 containing 10% FBS. The human hepatoma cell line HepG2 was obtained from ATCC and cultured in DMEM containing 10% FBS. […]
(§1) Total RNA was extracted with the RNeasy Plus Mini Kit from Qiagen, according to the manufacturer’s instructions. […] The cDNAs were then mixed with Qi SYBR Green Supermix (Bio-Rad, Hercules, CA, USA) for quantitative RT-PCR assay using a Bio-Rad I-cycler IQ quantitative thermocycler. […] Fold changes in gene expression were calculated using the ΔΔCt method. […]
(§2) Figure 3 Inhibition of ligand-induced Hedgehog signaling. […] After 72 h, RNA was extracted and analyzed by Q-RT-PCR for the expression of Hh target genes Gli1 (a,b,d) and Ptch1 (c), and normalized to Oaz1 expression. […] Luciferase activity was measured and normalized to the Renilla luciferase activity. […]

[2] = system: 8XGliBS-luciferase reporter responsive to Gli1 in NIH3T3-E1 cells; test: CM-induced 8XGliBS-luciferase reporter assay; assay type: cell-based, mouse; conditions: 72 h treatment
Description: NIH3T3-E1 and Sufu^−/− cells cultured in 24-well plates at 90% confluence were transiently transfected with 0.1 µg of Gli response-element reporter (pGL3b-8xGli-Luciferase) plasmid, and 10 ng of pTK-Renilla-Luciferase plasmid with or without co-transfection with 10 ng of Gli1 overexpression vector, pSRα-Gli1, as previously described using Lipofectamine LTX Plus transfection reagent (Invitrogen). Twenty-four h after transfection, cells were treated with test agents for 72 h. Then the firefly and Renilla luciferase activities were measured using a dual luciferase kit (Promega, Madison, WI, USA) and a GloMax-96 Microplate Luminometer. The firefly luciferase activities were normalized to the Renilla luciferase activities. Data are reported as the mean of triplicate determinations ± SD.
Figure 3 Inhibition of ligand-induced Hedgehog signaling. NIH3T3 cells were pretreated for 2 h with the oxysterols or various inhibitors, as indicated, in DMEM containing 5% FBS. Next, cells were treated with CAPAN-1 conditioned medium (CM) in the absence or presence of oxysterols or inhibitors. After 72 h, RNA was extracted and analyzed by Q-RT-PCR for the expression of Hh target genes Gli1 (a,b,d) and Ptch1 (c), and normalized to Oaz1 expression. […] Luciferase activity was measured and normalized to the Renilla luciferase activity. […]

[3] = system: Hh pathway target genes Gli1, Ptch1, and Hip in Sufu-/- mouse embryonic fibroblasts; test: Inhibition of Hh target gene expression in Sufu-/- MEFs, Q-RT-PCR; assay type: cell-based; conditions: 10 µM, 72 h
Source text: NIH3T3-E1 fibroblasts were obtained from ATCC (Manassas, VA) and cultured, as previously described. CAPAN-1 and PANC-1 human pancreatic cancer cells were obtained from ATCC and cultured in Dulbecco’s Modified Eagle Medium (DMEM) containing 10% heat-inactivated fetal bovine serum (FBS) (Hyclone Laboratories, Logan, UT, USA) and antibiotics, as previously described. The human lung cancer cell lines A549 and H2030 were obtained from ATCC and cultured in RPMI-1640 containing 10% FBS. The human hepatoma cell line HepG2 was obtained from ATCC and cultured in DMEM containing 10% FBS. Mouse embryonic fibroblasts (MEFs) from suppressor of fused (Sufu) null mice (Sufu^−/−) were provided by Dr. Philip Beachy of Stanford University and cultured in DMEM containing 10% FBS. […]
as §1
Figure 5 Oxy186 acts downstream of Smo. […] After 72 h, RNA was extracted and analyzed by Q-RT-PCR for the expression of Hh target genes Gli1, Ptch1, and Hip, normalized to Oaz1 expression. […] Luciferase activity was measured and normalized to the Renilla luciferase activity. […]

[4] = Metabolic stability in mouse liver microsomes; assay type: in vitro ADME
[5] = system: Hh target genes, Gli1 and Ptch1; test: Induction of Hh target genes by oxysterol alone in NIH3T3-E1 cells, Q-RT-PCR; assay type: cell-based, mouse; conditions: up to 10 µM, no CM
Description: Total RNA was extracted with the RNeasy Plus Mini Kit from Qiagen, according to the manufacturer’s instructions. One microgram of RNA was reverse-transcribed using an iScript Reverse Transcription Supermix from Bio-Rad, to make single-stranded cDNA. The cDNAs were then mixed with Qi SYBR Green Supermix (Bio-Rad, Hercules, CA, USA) for quantitative RT-PCR assay using a Bio-Rad I-cycler IQ quantitative thermocycler. All PCR samples were prepared in triplicate wells in a 96-well plate. After 40 cycles of PCR, melt curves were examined in order to ensure primer specificity. Fold changes in gene expression were calculated using the ΔΔCt method. Primers used for mouse were as follows: Oaz1 (5’-CCACTGCTTCGCCAGAGAG-3’) and (5’-CCCGGACCCAGGTTACTA-3’), Gli1 (5’-[…]-3’ and 5’-[…]-3’), Ptch1 (5’-CCATCGGCGACAAGAACC-3’ and 5’-[…]-3’), Hip (5’-[…]-3’ and 5’-[…]-3’), and Abca1 (5’-[…]-3’ and 5’-[…]-3’). […]
as §2

SMILES: C[C@]12CC[C@H](O)C[C@@H]1CC[C@@H]1[C@@H]2CC[C@@]2(C)[C@H]1CC[C@@H]2[C@](C)(O)CCc1ccc(F)cc1 [Oxy186, (3S,5S,8R,9S,10S,13S,14S,17S)-17-((R)-4-(4-fluorophenyl)-2-hydroxybutan-2-yl)-10,13-dimethylhexadecahydro-1H-cyclopenta[a]phenanthren-3-ol]
- Inhibition of ligand-induced Ptch1 mRNA expression [1]: robustly inhibited
- Inhibition of CM-induced 8XGliBS-luciferase reporter activity [2]: significantly inhibited
- Inhibition of high baseline expression of Hh pathway target genes Gli1, Ptch1, and Hip [3]: significant inhibition
- remaining at 1 h ([4]; 60 min, read-out: MLM, % Remaining after 60 min): 50%
- half-life ([4]; read-out: MLM, Half-Life): 1 h
- Induction of Hh target genes Gli1 and Ptch1 [5]: not
